Values belong to the compound of their own block, whether it stands above or below them.
What was measured:
human CYP4A11 = human CYP4A11 (Homo sapiens (Human), UniProt Q02928); assay: Inhibition test against 20-HETE producing enzyme CYP4A11 (luciferine derivative, luminescence); format: biochemical; settings: E. coli membrane fraction expressing human CYP4A11, 60 μM luciferine derivative, room temperature 60 minutes
Summary of the method: (§1)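 E. coli membranes (100 μg/mL protein) expressing human enzyme, room temperature 60 min, luciferin-derivative luminescence; IC50 from % inhibition. CYP4F2: 50 mM KPO4 pH 7.4, 2.5 μM substrate, 1 mM NADPH. CYP4A11: 100 mM Tris-HCl pH 7.5, 60 μM substrate, NADP+/glucose 6-phosphate/G6PDH regenerating system, 3.3 mM MgCl2.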

human CYP4F2 = human CYP4F2 (Homo sapiens (Human), UniProt P78329); assay: Inhibition test against 20-HETE producing enzyme CYP4F2 (luciferine derivative, luminescence); format: biochemical; settings: E. coli membrane fraction expressing human CYP4F2, 2.5 μM luciferine derivative, room temperature 60 minutes
human CYP4F2, sequence (P78329 5-520): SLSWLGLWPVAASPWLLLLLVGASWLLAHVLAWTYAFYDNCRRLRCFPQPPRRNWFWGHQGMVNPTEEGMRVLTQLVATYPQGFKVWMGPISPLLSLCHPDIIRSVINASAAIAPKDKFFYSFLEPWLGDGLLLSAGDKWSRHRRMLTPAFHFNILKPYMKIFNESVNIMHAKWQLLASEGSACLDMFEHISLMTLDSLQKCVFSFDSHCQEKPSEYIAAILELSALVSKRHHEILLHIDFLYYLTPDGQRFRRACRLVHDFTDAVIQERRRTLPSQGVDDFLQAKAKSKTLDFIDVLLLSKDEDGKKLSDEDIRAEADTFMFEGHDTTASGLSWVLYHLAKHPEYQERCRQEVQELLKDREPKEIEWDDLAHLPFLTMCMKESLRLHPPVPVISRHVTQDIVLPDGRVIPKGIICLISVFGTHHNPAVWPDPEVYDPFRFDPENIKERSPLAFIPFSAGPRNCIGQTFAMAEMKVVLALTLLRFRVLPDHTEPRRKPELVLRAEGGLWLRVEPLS
Summary of the method: as §1

human CYP4A11, sequence (Q02928 5-519): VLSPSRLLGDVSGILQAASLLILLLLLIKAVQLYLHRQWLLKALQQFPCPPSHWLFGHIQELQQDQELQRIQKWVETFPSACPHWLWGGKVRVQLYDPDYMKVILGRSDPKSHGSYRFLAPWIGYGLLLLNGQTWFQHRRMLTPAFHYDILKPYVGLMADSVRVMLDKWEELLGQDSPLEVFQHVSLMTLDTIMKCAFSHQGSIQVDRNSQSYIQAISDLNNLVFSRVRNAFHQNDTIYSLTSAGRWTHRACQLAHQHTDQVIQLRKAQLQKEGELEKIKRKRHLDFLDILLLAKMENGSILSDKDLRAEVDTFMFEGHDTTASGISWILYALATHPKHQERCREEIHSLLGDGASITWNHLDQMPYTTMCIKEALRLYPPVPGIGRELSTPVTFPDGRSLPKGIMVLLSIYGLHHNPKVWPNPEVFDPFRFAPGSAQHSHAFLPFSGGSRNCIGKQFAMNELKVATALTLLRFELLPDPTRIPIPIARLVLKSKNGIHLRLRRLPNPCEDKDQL

SMILES: O=C(O)Cn1ncc2cc(COc3ccc(-c4ccn[nH]4)nc3)ccc21 [Example 16-1, 2-[5-[[6-(1H-Pyrazol-5-yl)-3-pyridinyl]oxymethyl]-1-indazolyl]acetic Acid]
- IC50 (human CYP4A11): 53 nM
- IC50 (human CYP4F2): 1400 nM

SMILES: CC(C)(C(=O)O)C(=O)N1CCc2ccc(COc3ccc(-c4ccn[nH]4)nc3)cc2C1 [Example 17-1, 2,2-Dimethyl-3-oxo-3-[7-[[6-(1H-pyrazol-5-yl)-3-pyridinyl]oxymethyl]-3,4-dihydro-1H-isoquinolin-2-yl]propanoic Acid]
- IC50 (human CYP4A11): 1400 nM
- IC50 (human CYP4F2): 180 nM

SMILES: O=C(O)c1cccc(-c2cccc(COc3ccc(-c4ccn[nH]4)nc3)c2)n1 [Example 18-1, 6-[3-[[6-(1H-Pyrazol-5-yl)-3-pyridinyl]oxymethyl]phenyl]-2-pyridinecarboxylic Acid]
- IC50 (human CYP4A11): 13 nM
- IC50 (human CYP4F2): 460 nM

SMILES: O=C(O)c1ccc(-c2cccc(COc3ccc(-c4ccn[nH]4)nc3)c2)nc1 [Example 18-2]
- IC50 (human CYP4A11): 12 nM
- IC50 (human CYP4F2): 230 nM

SMILES: O=C(O)c1cncc(-c2cccc(COc3ccc(-c4ccn[nH]4)nc3)c2)n1 [Example 18-3]
- IC50 (human CYP4A11): 24 nM
- IC50 (human CYP4F2): 510 nM

SMILES: O=C(O)c1cnc(-c2cccc(COc3ccc(-c4ccn[nH]4)nc3)c2)cn1 [Example 18-4]
- IC50 (human CYP4A11): 22 nM
- IC50 (human CYP4F2): 490 nM

SMILES: CC(C)(Oc1cccc(COc2ccc(-c3ccn[nH]3)nc2)c1)C(=O)O [Example 18-5]
- IC50 (human CYP4A11): 32 nM
- IC50 (human CYP4F2): 5200 nM

SMILES: O=C(O)c1cccc(OCCOc2ccc(-c3ccn[nH]3)nc2)c1 [Example 18-6]
- IC50 (human CYP4A11): 310 nM
- IC50 (human CYP4F2): 6100 nM

SMILES: CS(=O)(=O)NCCCCCCOc1ccc(-c2ccn[nH]2)nc1 [Example 19-1, N-[6-[[6-(1H-Pyrazol-5-yl)-3-pyridinyl]oxy]hexyl]methanesulfonamide]
- IC50 (human CYP4A11): 1700 nM
- IC50 (human CYP4F2): 22 nM

SMILES: CS(=O)(=O)c1cc(COc2ccc(-c3ccn[nH]3)nc2)ccc1O [Example 20-1, 2-Methylsulfonyl-4-[[6-(1H-pyrazol-5-yl)-3-pyridinyl]oxymethyl]phenol]
- IC50 (human CYP4A11): 28000 nM
- IC50 (human CYP4F2): 1100 nM

SMILES: CS(=O)(=O)c1cc(O)cc(COc2ccc(-c3ccn[nH]3)nc2)c1 [Example 20-2]
- IC50 (human CYP4A11): 210 nM
- IC50 (human CYP4F2): 69 nM

SMILES: O=C(O)Cc1ccc(COc2ccc(-c3ccn[nH]3)nc2)cc1 [Example 21-1, 2-[4-[[6-(1H-Pyrazol-5-yl)-3-pyridinyl]oxymethyl]phenyl]acetic Acid]
- IC50 (human CYP4A11): 43 nM
- IC50 (human CYP4F2): 15000 nM

SMILES: O=C(O)Cc1ccccc1COc1ccc(-c2ccn[nH]2)nc1 [Example 21-2]
- IC50 (human CYP4A11): 3800 nM
- IC50 (human CYP4F2): > 50000 nM

SMILES: O=C(O)C1(c2cccc(COc3ccc(-c4ccn[nH]4)nc3)c2)CC1 [Example 21-3]
- IC50 (human CYP4A11): 16 nM
- IC50 (human CYP4F2): 21000 nM

SMILES: CC(C)(CCNS(=O)(=O)c1cccc(COc2ccc(-c3ccn[nH]3)nc2)c1)C(=O)O [Example 21-4]
- IC50 (human CYP4A11): 25 nM
- IC50 (human CYP4F2): 1500 nM

SMILES: CN(CCC(C)(C)C(=O)O)S(=O)(=O)c1cccc(COc2ccc(-c3ccn[nH]3)nc2)c1 [Example 21-5]
- IC50 (human CYP4A11): 29 nM
- IC50 (human CYP4F2): 430 nM

Second part, the compound after the results:

- IC50 (human CYP4A11): 15 nM
- IC50 (human CYP4F2): 140 nM
SMILES: O=C(O)/C=C/c1cccc(COc2ccc(-c3ccn[nH]3)nc2)c1 [Example 22-1, (2E)-3-[3-[[[6-(1H-Pyrazol-5-yl)pyridin-3-yl]oxy]methyl]phenyl]-2-propenoic Acid]

- IC50 (human CYP4A11): 42 nM
- IC50 (human CYP4F2): 1400 nM
SMILES: O=C(O)c1cccc(COc2ccc(-c3ccn[nH]3)nc2)c1 [Example 22-2]

- IC50 (human CYP4A11): 16 nM
- IC50 (human CYP4F2): 17000 nM
SMILES: O=C(O)Cc1cccc(COc2ccc(-c3ccn[nH]3)nc2)c1 [Example 22-3]

- IC50 (human CYP4A11): 20 nM
- IC50 (human CYP4F2): 1400 nM
SMILES: O=C(O)CCc1cccc(COc2ccc(-c3ccn[nH]3)nc2)c1 [Example 22-4]

- IC50 (human CYP4A11): 120 nM
- IC50 (human CYP4F2): 3100 nM
SMILES: O=C(O)c1cnc(-c2cccc(COc3ccc(-c4ccn[nH]4)nc3)c2)nc1 [Example 22-5, 2-[3-[[6-(1H-Pyrazol-5-yl)-3-pyridinyl]oxymethyl]phenyl]-5-pyrimidinecarboxylic Acid]

- IC50 (human CYP4A11): 110 nM
- IC50 (human CYP4F2): 3100 nM
SMILES: O=C(O)c1ccnc(-c2cccc(COc3ccc(-c4ccn[nH]4)nc3)c2)n1 [Example 22-6]

- IC50 (human CYP4A11): 38 nM
- IC50 (human CYP4F2): 1200 nM
SMILES: O=C(O)c1ncc(-c2cccc(COc3ccc(-c4ccn[nH]4)nc3)c2)cn1 [Example 22-7]

- IC50 (human CYP4A11): 68 nM
- IC50 (human CYP4F2): 1500 nM
SMILES: O=C(O)C1CCN(S(=O)(=O)c2cccc(COc3ccc(-c4ccn[nH]4)nc3)c2)CC1 [Example 22-8]

- IC50 (human CYP4A11): 24 nM
- IC50 (human CYP4F2): 2000 nM
SMILES: O=C(O)C1CCN(S(=O)(=O)c2cccc(COc3ccc(-c4ccn[nH]4)nc3)c2)C1 (stereo not drawn) [Example 22-10]

- IC50 (human CYP4A11): 53 nM
- IC50 (human CYP4F2): 2000 nM
SMILES: O=C(O)C1CN(S(=O)(=O)c2cccc(COc3ccc(-c4ccn[nH]4)nc3)c2)CCO1 (stereo not drawn) [Example 22-12]

- IC50 (human CYP4A11): 380 nM
- IC50 (human CYP4F2): 11000 nM
SMILES: CC(C)(Oc1cc(COc2ccc(-c3ccn[nH]3)nc2)ccn1)C(=O)O [Example 22-13, 2-Methyl-2-[[4-[[6-(1H-pyrazol-5-yl)-3-pyridinyl]oxymethyl]-2-pyridinyl]oxy]propanoic Acid]

- IC50 (human CYP4A11): 92 nM
- IC50 (human CYP4F2): 14000 nM
SMILES: O=C(O)c1cc(COc2ccc(-c3ccn[nH]3)nc2)ccc1F [Example 22-15]

- IC50 (human CYP4A11): 780 nM
- IC50 (human CYP4F2): 33000 nM
SMILES: O=C(O)c1cc(COc2ccc(-c3ccn[nH]3)nc2)ccc1Cl [Example 22-16]

- IC50 (human CYP4A11): 62 nM
- IC50 (human CYP4F2): 19000 nM
SMILES: COc1cc(COc2ccc(-c3ccn[nH]3)nc2)ccc1C(=O)O [Example 22-17, 2-Methoxy-4-[[6-(1H-pyrazol-5-yl)-3-pyridinyl]oxymethyl]benzoic Acid]

- IC50 (human CYP4A11): 35 nM
- IC50 (human CYP4F2): 18000 nM
SMILES: O=C(O)c1ccc(COc2ccc(-c3ccn[nH]3)nc2)cc1F [Example 22-18]

- IC50 (human CYP4A11): 49 nM
- IC50 (human CYP4F2): 1500 nM
SMILES: O=C(O)Cc1cccc(OCCOc2ccc(-c3ccn[nH]3)nc2)c1 [Example 22-19, 2-[3-[2-[[6-(1H-Pyrazol-5-yl)-3-pyridinyl]oxy]ethoxy]phenyl] acetic Acid]

- IC50 (human CYP4A11): 76 nM
- IC50 (human CYP4F2): 9600 nM
SMILES: O=C(O)CCCCCCOc1ccc(-c2ccn[nH]2)nc1 [Example 22-20, 7-[[6-(1H-Pyrazol-5-yl)-3-pyridinyl]oxy]heptanoic Acid]

- IC50 (human CYP4A11): 36 nM
- IC50 (human CYP4F2): 220 nM
SMILES: CNS(=O)(=O)c1cccc(COc2ccc(-c3ccn[nH]3)nc2)c1 [Example 23-1, N-Methyl-3-[[6-(1-H-pyrazol-5-yl)-3-pyridinyl]oxymethyl]benzenesulfonamide]

- IC50 (human CYP4A11): 13 nM
- IC50 (human CYP4F2): 3 nM
SMILES: CNS(=O)(=O)c1cccc(CN(C)S(=O)(=O)c2cccc(COc3ccc(-c4ccn[nH]4)nc3)c2)c1 [Example 23-2, N-Methyl-3-[[methyl-[3-[[6-(1-H-pyrazol-5-yl)-3-pyridinyl]oxymethyl]phenyl]sulfonylamino]methyl]benzenesulfonamide]

- IC50 (human CYP4A11): 1700 nM
- IC50 (human CYP4F2): 49 nM
SMILES: O=S(=O)(NCCc1c[nH]c2ccccc12)c1ccc(COc2ccc(-c3ccn[nH]3)nc2)cc1 [Example 23-3]

- IC50 (human CYP4A11): 2000 nM
- IC50 (human CYP4F2): 51 nM
SMILES: OCc1ccc(COc2ccc(-c3ccn[nH]3)nc2)cc1 [Example 23-4]

- IC50 (human CYP4A11): 480 nM
- IC50 (human CYP4F2): 130 nM
SMILES: OCc1cccc(COc2ccc(-c3ccn[nH]3)nc2)c1 [Example 23-5]

- IC50 (human CYP4A11): 270 nM
- IC50 (human CYP4F2): 6.4 nM
SMILES: O=S(=O)(Nc1ccc(F)cc1)c1ccc(COc2ccc(-c3ccn[nH]3)nc2)cc1 [Example 23-6]
